Where “and” joins values, the source holds several entries; their conditions need not be identical. Identical values can stand only once. Toxic doses and inconclusive results are not listed.

The subject of the assay is L1210 leukemia ip in BDF1 mice, survival T/C. As to the kind of experiment: NCI In Vivo Anticancer Drug Screen. Data for tumor model L1210 Leukemia (intraperitoneal) in B6D2F1 (BDF1) mice. Conditions: endpoint: mean survival time, higher = longer survival. The procedure, abridged: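 Transplanted-tumor mice were given test agent; controls received vehicle only. Survival readings from the two groups were divided (treated over control).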

[1] abbreviates: dose: 20.0 mg/kg/injection, schedule: Q04DX003 (ip), vehicle: Klucel (hydroxypropylcellulose) (HPC).
The mark [2] stands for this setting: dose: 40.0 mg/kg/injection, schedule: Q04DX003 (ip), vehicle: Klucel (hydroxypropylcellulose) (HPC).
The mark [3] stands for this setting: dose: 100.0 mg/kg/injection, schedule: Q04DX003 (ip), vehicle: Klucel (hydroxypropylcellulose) (HPC).
[4] abbreviates: dose: 100.0 mg/kg/injection, schedule: Q01DX001 (ip), vehicle: saline.
[5] abbreviates: dose: 200.0 mg/kg/injection, schedule: Q01DX001 (ip), vehicle: saline.
The mark [6] stands for this setting: dose: 400.0 mg/kg/injection, schedule: Q01DX001 (ip), vehicle: saline.
Setting [7] is: dose: 100.0 mg/kg/injection, schedule: Q01DX009 (ip), vehicle: Klucel (hydroxypropylcellulose) (HPC).
Where [8] appears, read: dose: 200.0 mg/kg/injection, schedule: Q04DX003 (ip), vehicle: Klucel (hydroxypropylcellulose) (HPC).
Setting [9] is: dose: 25.0 mg/kg/injection, schedule: Q01DX009 (ip), vehicle: Klucel (hydroxypropylcellulose) (HPC).
The mark [10] stands for this setting: dose: 50.0 mg/kg/injection, schedule: Q01DX009 (ip), vehicle: Klucel (hydroxypropylcellulose) (HPC).
The mark [11] stands for this setting: dose: 100.0 mg/kg/injection, schedule: Q01DX009 (ip), vehicle: saline.
Where [12] appears, read: dose: 100.0 mg/kg/injection, schedule: Q04DX003 (ip), vehicle: saline.
Setting [13] is: dose: 200.0 mg/kg/injection, schedule: Q01DX009 (ip), vehicle: saline.
Setting [14] is: dose: 200.0 mg/kg/injection, schedule: Q04DX003 (ip), vehicle: saline.
The mark [15] stands for this setting: dose: 400.0 mg/kg/injection, schedule: Q01DX009 (ip), vehicle: saline.
[16] abbreviates: dose: 400.0 mg/kg/injection, schedule: Q04DX003 (ip), vehicle: saline.
Where [17] appears, read: dose: 100.0 mg/kg/injection, schedule: Q04DX002 (ip), vehicle: saline with Tween-80.

Consider `CC1(C)N=C(N)N=C(N)N1c1cccc(OCCOc2ccccc2[N+](=O)[O-])c1`, for which the T/C by setting is: (dose: 10.0 mg/kg/injection, schedule: Q01DX001 (ip), vehicle: Klucel (hydroxypropylcellulose) (HPC)) 108 % of control; (dose: 10.0 mg/kg/injection, schedule: Q01DX009 (ip), vehicle: Klucel (hydroxypropylcellulose) (HPC)) 98 % of control and 101 % of control; (dose: 10.0 mg/kg/injection, schedule: Q04DX002 (ip), vehicle: Klucel (hydroxypropylcellulose) (HPC)) 94 % of control and 90 % of control; (dose: 10.0 mg/kg/injection, schedule: Q04DX003 (ip), vehicle: Klucel (hydroxypropylcellulose) (HPC)) 96 % of control; (dose: 20.0 mg/kg/injection, schedule: Q01DX001 (ip), vehicle: Klucel (hydroxypropylcellulose) (HPC)) 104 % of control; (dose: 20.0 mg/kg/injection, schedule: Q01DX009 (ip), vehicle: Klucel (hydroxypropylcellulose) (HPC)) 102 % of control and 108 % of control. Further, the T/C is, setting by setting: (dose: 20.0 mg/kg/injection, schedule: Q04DX002 (ip), vehicle: Klucel (hydroxypropylcellulose) (HPC)) 101 % of control and 120 % of control; under setting [1], 100 % of control; (dose: 40.0 mg/kg/injection, schedule: Q01DX001 (ip), vehicle: Klucel (hydroxypropylcellulose) (HPC)) 101 % of control; (dose: 40.0 mg/kg/injection, schedule: Q01DX009 (ip), vehicle: Klucel (hydroxypropylcellulose) (HPC)) 104 % of control and 108 % of control; (dose: 40.0 mg/kg/injection, schedule: Q04DX002 (ip), vehicle: Klucel (hydroxypropylcellulose) (HPC)) 94 % of control and 90 % of control; under setting [2], 102 % of control.
In the case of `CC(NC(=O)NCCCl)C(O)c1ccccc1` (configuration not stated), the T/C by setting is: under setting [1], 103 % of control; under setting [2], 96 % of control; (dose: 80.0 mg/kg/injection, schedule: Q04DX003 (ip), vehicle: Klucel (hydroxypropylcellulose) (HPC)) 102 % of control; under setting [3], 100 % of control.
Consider `CCOC(=O)/C(C)=N/Nc1cc(Cl)ccc1O`, for which the T/C was 95 % of control under setting [4], 94 % of control under setting [5] and 106 % of control under setting [6].
Take `OCC1OC(n2cnc3cncnc32)C(O)C1O` (configuration not stated): the T/C is, setting by setting: (dose: 1.9 mg/kg/injection, schedule: Q01DX015 (ip), vehicle: saline) 108 % of control; (dose: 2.5 mg/kg/injection, schedule: Q01DX015 (ip), vehicle: saline) 104 % of control; (dose: 2.8 mg/kg/injection, schedule: Q01DX015 (ip), vehicle: saline) 151 % of control; (dose: 4.3 mg/kg/injection, schedule: Q01DX015 (ip), vehicle: saline) 110 % of control; (dose: 5.0 mg/kg/injection, schedule: Q01DX015 (ip), vehicle: saline) 106 % of control; (dose: 6.5 mg/kg/injection, schedule: Q01DX015 (ip), vehicle: saline) 108 % of control. In addition, the T/C reads like this: (dose: 9.7 mg/kg/injection, schedule: Q01DX015 (ip), vehicle: saline) 112 % of control; (dose: 10.0 mg/kg/injection, schedule: Q01DX015 (ip), vehicle: saline) 118 % of control; (dose: 20.0 mg/kg/injection, schedule: Q01DX015 (ip), vehicle: saline) 93 % of control; (dose: 50.0 mg/kg/injection, schedule: Q01DX001 (ip), vehicle: saline) 117 % of control and 122 % of control; under setting [4], 123 % of control.
Consider `O=C/C(=C/c1ccccc1)c1ccccc1`, for which the T/C was 98 % of control under setting [7]; 107 % of control under setting [3]; 101 % of control (dose: 200.0 mg/kg/injection, schedule: Q01DX009 (ip), vehicle: Klucel (hydroxypropylcellulose) (HPC)); 98 % of control under setting [8]; 95 % of control (dose: 400.0 mg/kg/injection, schedule: Q01DX009 (ip), vehicle: Klucel (hydroxypropylcellulose) (HPC)); 102 % of control (dose: 400.0 mg/kg/injection, schedule: Q04DX003 (ip), vehicle: Klucel (hydroxypropylcellulose) (HPC)).
For the compound `O=C(NCc1ccco1)c1cccc(F)c1`, the T/C reads like this: under setting [9], 93 % of control; under setting [10], 95 % of control; under setting [7], 104 % of control and 109 % of control.
`O=S(=O)(CCCCCl)Cc1ccccc1`: the T/C was 101 % of control under setting [4]; 110 % of control under setting [11]; 104 % of control under setting [12]; 96 % of control under setting [5]; 94 % of control under setting [13]; 104 % of control under setting [14]. For the same compound, the T/C runs as follows: under setting [6], 93 % of control; under setting [15], 103 % of control; under setting [16], 93 % of control.
With `CCOCc1ccc(O)c2ncccc12`, the T/C (dose: 264.0 mg/kg/injection, schedule: Q01DX001 (ip), vehicle: carboxymethylcellulose (CMC)) is 106 % of control and the T/C (dose: 400.0 mg/kg/injection, schedule: Q01DX001 (ip), vehicle: carboxymethylcellulose (CMC)) was 107 % of control.
In the case of `O=C(CSCC(=O)c1ccccc1)c1ccccc1`, the T/C was 93 % of control (dose: 12.5 mg/kg/injection, schedule: Q01DX009 (ip), vehicle: Klucel (hydroxypropylcellulose) (HPC)); 104 % of control under setting [9]; 112 % of control under setting [10]; 103 % of control (dose: 80.0 mg/kg/injection, schedule: Q01DX009 (ip), vehicle: Klucel (hydroxypropylcellulose) (HPC)); 100 % of control (dose: 115.0 mg/kg/injection, schedule: Q01DX009 (ip), vehicle: Klucel (hydroxypropylcellulose) (HPC)); 100 % of control (dose: 170.0 mg/kg/injection, schedule: Q01DX009 (ip), vehicle: Klucel (hydroxypropylcellulose) (HPC)).
In the case of `CNC(=O)Nc1ccc(Cl)cc1`, the T/C runs as follows: (dose: 100.0 mg/kg/injection, schedule: Q01DX001 (ip), vehicle: Klucel (hydroxypropylcellulose) (HPC)) 107 % of control; (dose: 200.0 mg/kg/injection, schedule: Q01DX001 (ip), vehicle: Klucel (hydroxypropylcellulose) (HPC)) 105 % of control; (dose: 400.0 mg/kg/injection, schedule: Q01DX001 (ip), vehicle: Klucel (hydroxypropylcellulose) (HPC)) 107 % of control.
With `Fc1ccc(-n2ncc3c2-c2ccccc2CCC3)cc1`, the T/C reads like this: under setting [4], 108 % of control; under setting [5], 104 % of control; under setting [6], 108 % of control.
For `C[N+]12CN3CN(C1)S(=O)(=O)N(C3)C2`, the T/C is 107 % of control under setting [11]; 95 % of control under setting [12]; 108 % of control under setting [13]; 97 % of control under setting [14]; 110 % of control under setting [15]; 103 % of control under setting [16].
Regarding `c1ccc(-c2ccccn2)nc1`, the T/C is, setting by setting: under setting [17], 107 % of control; (dose: 200.0 mg/kg/injection, schedule: Q04DX002 (ip), vehicle: saline with Tween-80) 101 % of control; (dose: 400.0 mg/kg/injection, schedule: Q04DX002 (ip), vehicle: saline with Tween-80) 114 % of control.
Regarding `Cc1cc(C(N)=O)c(C#N)c(=O)[nH]1`, the T/C was 94 % of control (dose: 75.0 mg/kg/injection, schedule: Q01DX001 (ip), vehicle: steriod suspending solution) and 95 % of control (dose: 150.0 mg/kg/injection, schedule: Q01DX001 (ip), vehicle: steriod suspending solution).
Consider `CCCCSc1cc(C)nc2ccccc12`, for which the T/C is 100 % of control (dose: 25.0 mg/kg/injection, schedule: Q01DX009 (ip), vehicle: saline with Tween-80); 93 % of control (dose: 25.0 mg/kg/injection, schedule: Q04DX002 (ip), vehicle: saline with Tween-80); 96 % of control (dose: 50.0 mg/kg/injection, schedule: Q01DX009 (ip), vehicle: saline with Tween-80); 96 % of control (dose: 50.0 mg/kg/injection, schedule: Q04DX002 (ip), vehicle: saline with Tween-80); 93 % of control (dose: 100.0 mg/kg/injection, schedule: Q01DX009 (ip), vehicle: saline with Tween-80); 93 % of control under setting [17].
On to `Cc1cnc2c(NC(=O)CCl)nn(C)c2n1`, for which the T/C was 98 % of control under setting [9]; 93 % of control under setting [10]; 93 % of control and 91 % of control under setting [7]; 91 % of control under setting [3]; 93 % of control under setting [8].
As to `CCOC(=O)N1C=Cc2c(c3ccccc3n2C)N1C(=O)OCC`, the T/C reads like this: under setting [4], 93 % of control; under setting [5], 104 % of control; under setting [6], 100 % of control.
